From ChEMBL document CHEMBL4004825 (J Med Chem, 2017)
Values belong to the molecule of their own block, whether it stands above or below them. Activity calls are given as the source filed them. The calls are words filed in the database; no cut-off is given here.

Columns and labels:
[1] = target: T1, Tyrosine-protein kinase JAK1 (Homo sapiens, UniProt P23458); assay: Inhibition of recombinant human GST-tagged cytoplasmic JAK1 catalytic domain (866 to 1154 residues) expressed in baculovirus expression system using 5FAM-KKSRGDYMTMQID as substrate in presence of 1 mM ATP by microfluidic assay
T1 sequence (P23458 whole entry, the tested form may be a part): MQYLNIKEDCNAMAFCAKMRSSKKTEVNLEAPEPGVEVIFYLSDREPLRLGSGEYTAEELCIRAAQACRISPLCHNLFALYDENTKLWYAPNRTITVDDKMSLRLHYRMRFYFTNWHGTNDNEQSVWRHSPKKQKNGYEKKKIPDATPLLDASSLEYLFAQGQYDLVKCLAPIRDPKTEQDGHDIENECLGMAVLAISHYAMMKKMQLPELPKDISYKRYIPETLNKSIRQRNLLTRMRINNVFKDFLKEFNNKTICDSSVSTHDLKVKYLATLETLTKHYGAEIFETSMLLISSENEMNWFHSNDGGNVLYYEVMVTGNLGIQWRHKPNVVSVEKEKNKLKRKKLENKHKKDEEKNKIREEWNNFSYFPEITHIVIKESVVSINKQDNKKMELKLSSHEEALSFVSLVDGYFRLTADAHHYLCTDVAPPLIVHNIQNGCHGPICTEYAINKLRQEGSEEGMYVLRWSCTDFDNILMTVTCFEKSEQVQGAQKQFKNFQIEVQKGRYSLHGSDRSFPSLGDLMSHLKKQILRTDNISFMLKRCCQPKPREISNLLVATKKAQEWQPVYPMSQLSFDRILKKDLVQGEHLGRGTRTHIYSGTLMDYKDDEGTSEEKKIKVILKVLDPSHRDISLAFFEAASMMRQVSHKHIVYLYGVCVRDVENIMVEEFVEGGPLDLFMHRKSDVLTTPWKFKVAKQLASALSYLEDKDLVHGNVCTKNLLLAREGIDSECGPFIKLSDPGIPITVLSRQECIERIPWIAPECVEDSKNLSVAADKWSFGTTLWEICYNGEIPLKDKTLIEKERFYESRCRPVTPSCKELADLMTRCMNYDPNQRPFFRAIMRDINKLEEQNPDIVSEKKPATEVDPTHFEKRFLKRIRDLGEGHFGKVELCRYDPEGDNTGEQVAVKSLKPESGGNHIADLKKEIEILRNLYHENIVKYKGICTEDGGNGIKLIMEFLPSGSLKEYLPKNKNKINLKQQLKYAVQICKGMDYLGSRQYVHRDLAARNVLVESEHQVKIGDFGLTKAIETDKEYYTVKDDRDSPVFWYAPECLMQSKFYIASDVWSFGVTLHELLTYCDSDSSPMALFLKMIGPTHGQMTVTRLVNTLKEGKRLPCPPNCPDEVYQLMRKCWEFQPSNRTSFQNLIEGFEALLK

[2] = target: Non-receptor tyrosine-protein kinase TYK2 (Homo sapiens, UniProt P29597); assay: Inhibition of recombinant human His-tagged TYK2 expressed in baculovirus infected sf21 cells using 5FAM-KKSRGDYMTMQID as substrate in presence of 1 mM ATP by microfluidic assay
Sequence of Non-receptor tyrosine-protein kinase TYK2 (P29597 whole entry, the tested form may be a part): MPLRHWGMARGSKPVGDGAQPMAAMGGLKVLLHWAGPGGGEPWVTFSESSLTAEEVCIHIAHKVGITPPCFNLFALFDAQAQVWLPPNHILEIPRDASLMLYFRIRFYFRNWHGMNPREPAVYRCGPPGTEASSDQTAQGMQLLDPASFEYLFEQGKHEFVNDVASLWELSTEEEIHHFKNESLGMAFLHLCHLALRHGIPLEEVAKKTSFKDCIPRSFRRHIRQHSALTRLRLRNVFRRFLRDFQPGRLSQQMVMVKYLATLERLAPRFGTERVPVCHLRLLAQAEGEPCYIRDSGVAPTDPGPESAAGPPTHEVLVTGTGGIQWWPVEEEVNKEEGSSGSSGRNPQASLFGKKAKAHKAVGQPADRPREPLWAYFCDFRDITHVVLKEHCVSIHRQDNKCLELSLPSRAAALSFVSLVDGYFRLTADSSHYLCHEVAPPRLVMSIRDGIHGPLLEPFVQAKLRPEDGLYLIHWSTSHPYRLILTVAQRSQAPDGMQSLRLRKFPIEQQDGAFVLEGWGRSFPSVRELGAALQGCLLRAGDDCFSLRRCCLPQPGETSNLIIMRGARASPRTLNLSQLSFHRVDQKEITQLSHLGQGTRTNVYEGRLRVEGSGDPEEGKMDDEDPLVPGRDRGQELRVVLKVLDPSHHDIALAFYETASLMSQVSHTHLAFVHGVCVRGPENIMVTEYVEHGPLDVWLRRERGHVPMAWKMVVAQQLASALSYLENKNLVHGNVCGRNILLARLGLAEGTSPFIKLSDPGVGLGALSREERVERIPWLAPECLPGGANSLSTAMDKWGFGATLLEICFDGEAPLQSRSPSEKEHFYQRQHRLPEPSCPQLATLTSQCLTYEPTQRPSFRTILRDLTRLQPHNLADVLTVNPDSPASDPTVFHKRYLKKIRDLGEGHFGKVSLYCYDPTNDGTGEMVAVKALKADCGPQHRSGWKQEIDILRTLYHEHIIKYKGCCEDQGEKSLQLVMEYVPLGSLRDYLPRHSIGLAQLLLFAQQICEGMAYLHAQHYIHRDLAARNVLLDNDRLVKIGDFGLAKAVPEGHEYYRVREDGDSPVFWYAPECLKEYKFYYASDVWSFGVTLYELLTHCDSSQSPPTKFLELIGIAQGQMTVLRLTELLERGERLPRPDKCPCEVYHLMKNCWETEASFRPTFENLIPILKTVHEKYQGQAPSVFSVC

[3] = target: Tyrosine-protein kinase JAK2 (Homo sapiens, UniProt O60674); assay: Inhibition of recombinant human GST-tagged cytoplasmic JAK2 catalytic domain (809 to 1153+9 residues) expressed in baculovirus expression system using FITC-KGGEEEEYFELVKK as substrate in presence of 1 mM ATP by microfluidic assay
Sequence of Tyrosine-protein kinase JAK2 (O60674 whole entry, the tested form may be a part): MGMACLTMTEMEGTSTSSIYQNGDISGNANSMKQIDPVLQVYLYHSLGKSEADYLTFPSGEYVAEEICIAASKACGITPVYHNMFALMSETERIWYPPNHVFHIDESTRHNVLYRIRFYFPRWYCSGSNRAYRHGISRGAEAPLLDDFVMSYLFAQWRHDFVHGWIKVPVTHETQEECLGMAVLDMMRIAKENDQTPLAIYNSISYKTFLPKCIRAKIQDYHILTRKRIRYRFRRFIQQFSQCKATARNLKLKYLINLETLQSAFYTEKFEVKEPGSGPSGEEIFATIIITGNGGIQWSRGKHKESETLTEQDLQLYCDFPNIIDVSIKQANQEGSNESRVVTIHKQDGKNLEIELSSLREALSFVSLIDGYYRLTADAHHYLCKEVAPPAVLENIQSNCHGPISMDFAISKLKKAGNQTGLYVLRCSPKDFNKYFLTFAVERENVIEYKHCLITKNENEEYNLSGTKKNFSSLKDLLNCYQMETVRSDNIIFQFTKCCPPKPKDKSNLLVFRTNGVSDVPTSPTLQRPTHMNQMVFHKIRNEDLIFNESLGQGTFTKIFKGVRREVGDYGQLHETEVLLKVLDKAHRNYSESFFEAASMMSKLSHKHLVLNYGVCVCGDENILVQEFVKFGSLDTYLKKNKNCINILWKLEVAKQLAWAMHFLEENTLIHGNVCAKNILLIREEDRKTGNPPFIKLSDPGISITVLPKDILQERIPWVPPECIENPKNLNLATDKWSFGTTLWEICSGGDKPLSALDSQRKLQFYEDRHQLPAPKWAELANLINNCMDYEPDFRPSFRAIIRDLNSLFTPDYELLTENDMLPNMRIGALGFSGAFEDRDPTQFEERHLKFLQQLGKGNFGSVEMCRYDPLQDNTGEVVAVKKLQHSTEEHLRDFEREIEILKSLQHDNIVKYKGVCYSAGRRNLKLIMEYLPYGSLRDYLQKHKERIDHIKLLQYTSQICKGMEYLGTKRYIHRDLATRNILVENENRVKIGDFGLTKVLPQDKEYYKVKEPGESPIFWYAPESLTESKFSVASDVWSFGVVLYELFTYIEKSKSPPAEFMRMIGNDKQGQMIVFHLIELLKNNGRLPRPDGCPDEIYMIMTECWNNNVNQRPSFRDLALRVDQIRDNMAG

[4] = target: T2, Tyrosine-protein kinase JAK3 (Homo sapiens, UniProt P52333); assay: Inhibition of recombinant human GST-tagged cytoplasmic JAK3 catalytic domain (781 to 1124 residues) expressed in baculovirus expression system using FITC-KGGEEEEYFELVKK as substrate in presence of 4 uM ATP by microfluidic assay
T2 sequence (P52333 whole entry): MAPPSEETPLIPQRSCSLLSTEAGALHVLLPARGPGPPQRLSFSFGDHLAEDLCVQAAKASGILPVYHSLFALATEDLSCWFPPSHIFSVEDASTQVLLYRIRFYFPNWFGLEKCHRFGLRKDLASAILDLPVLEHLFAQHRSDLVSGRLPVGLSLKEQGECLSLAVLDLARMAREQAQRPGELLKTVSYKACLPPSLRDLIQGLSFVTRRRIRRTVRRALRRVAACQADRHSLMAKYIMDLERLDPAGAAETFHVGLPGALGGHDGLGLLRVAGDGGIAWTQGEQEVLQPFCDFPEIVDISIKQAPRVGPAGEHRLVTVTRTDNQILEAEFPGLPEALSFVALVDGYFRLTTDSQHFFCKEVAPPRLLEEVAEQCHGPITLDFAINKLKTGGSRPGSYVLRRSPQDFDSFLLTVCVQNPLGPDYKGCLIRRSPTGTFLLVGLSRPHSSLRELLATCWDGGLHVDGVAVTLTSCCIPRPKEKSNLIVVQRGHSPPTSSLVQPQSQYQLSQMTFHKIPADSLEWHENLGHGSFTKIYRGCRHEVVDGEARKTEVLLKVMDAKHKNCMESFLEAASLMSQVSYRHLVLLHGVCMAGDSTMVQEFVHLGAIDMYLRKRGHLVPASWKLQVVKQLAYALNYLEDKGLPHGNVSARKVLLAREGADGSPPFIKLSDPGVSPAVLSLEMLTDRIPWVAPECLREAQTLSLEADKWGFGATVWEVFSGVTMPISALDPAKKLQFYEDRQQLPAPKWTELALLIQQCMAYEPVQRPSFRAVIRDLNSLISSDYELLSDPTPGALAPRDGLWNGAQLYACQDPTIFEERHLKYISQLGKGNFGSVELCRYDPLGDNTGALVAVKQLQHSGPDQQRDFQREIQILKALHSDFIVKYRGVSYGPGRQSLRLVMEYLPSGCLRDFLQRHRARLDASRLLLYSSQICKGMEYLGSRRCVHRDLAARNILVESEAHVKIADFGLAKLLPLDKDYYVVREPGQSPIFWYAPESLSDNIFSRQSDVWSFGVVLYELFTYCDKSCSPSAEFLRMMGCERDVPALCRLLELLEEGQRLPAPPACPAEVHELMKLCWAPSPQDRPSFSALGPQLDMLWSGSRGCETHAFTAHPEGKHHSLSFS

[5] = target: T2, Tyrosine-protein kinase JAK3; assay: Inhibition of JAK3 in human PBMC assessed as inhibition of IL-15 induced STAT5 phosphorylation preincubated for 75 mins followed by IL-15 addition and measured after 15 mins by Alexa Fluor 647 staining based flow cytometry
[6] = target: T2, Tyrosine-protein kinase JAK3; assay: Inhibition of recombinant human GST-tagged cytoplasmic JAK3 catalytic domain (781 to 1124 residues) expressed in baculovirus expression system using FITC-KGGEEEEYFELVKK as substrate in presence of 1 mM ATP by microfluidic assay
[7] = target: T1, Tyrosine-protein kinase JAK1; assay: Inhibition of recombinant human GST-tagged cytoplasmic JAK1 catalytic domain (866 to 1154 residues) expressed in baculovirus expression system using 5FAM-KKSRGDYMTMQID as substrate in presence of 40 uM ATP by microfluidic assay
[8] = target: T2, Tyrosine-protein kinase JAK3; assay: Inhibition of JAK3 in human whole blood assessed as inhibition of IL-15 induced STAT5 phosphorylation preincubated for 45 mins followed by IL-15 addition and measured after 15 mins by Alexa Fluor 647 staining based flow cytometric analysis
[9] = Stability in human liver microsomes; format: ADME, microsome; settings: read-out: Stability
[10] = test system: Mus musculus; assay: (§1) Anti-inflammatory activity in po dosed sheep RBC-sensitized BALB/c mouse model of delayed-type hypersensitivity assessed as reduction in right hind foot pad thickness administered once daily for 7 days pretreated for 1 day followed by SRBC challenge and subsequent compound treatment for 6 days measured 24 hrs post SRBC rechallenge on day 6; format: functional, organism-based
[11] = Clearance in rat in presence of CYP450 inhibitor ABT; format: ADME; settings: with ABT (CYP450 inhibitor)
[12] = Half-life in human whole blood at 1 uM by LC-MS/MS analysis; format: ADME
[13] = Half-life in Sprague-Dawley rat blood at 1 uM by LC-MS/MS analysis; format: ADME, tissue-based
[14] = Permeability in RRCK cells; format: ADME, cell-based, Canis lupus familiaris, MDCKII-LE; settings: dog, MDCK; read-out: permeability
[15] = Clearance in rat in absence of CYP450 inhibitor ABT; format: ADME
[16] = Stability in rat liver microsomes; format: ADME, microsome; settings: read-out: Stability
[17] = Stability in human whole blood assessed as GST-mediated clearance by measuring half-life at 1 uM by LC-MS/MS analysis; format: ADME
[18] = test system: Mus musculus; assay: as §1, with “in” for “in po dosed”, “thickness at 30 mg/kg, po” for “thickness”, “twice” for “once”; format: functional, organism-based

Compound: C=CC(=O)Nc1cccc(-c2ncnc3[nH]ccc23)c1
IC50 [1]: 8710 nM
IC50 [2]: > 10000 nM
IC50 [3]: > 10000 nM
IC50 [4]: 0.3 nM
IC50 [5]: 32 nM
IC50 [6]: 29 nM
IC50 [7]: 966 nM
IC50 [8]: 2280 nM

Compound: C=CC(=O)N1C[C@@H](C)C[C@@H](Nc2ncnc3[nH]ccc23)C1 (single isomer, unassigned)
half-life at 1 µM [17]: > 4.17 h

Compound: C=CC(=O)N1CCC[C@@H](Nc2ncnc3[nH]ccc23)[C@H]1C (racemic)
half-life at 1 µM [17]: > 6 h
IC50 [6]: > 1000 nM

Compound: C[C@@H]1CCN(C(=O)CC#N)C[C@@H]1N(C)c1ncnc2[nH]ccc12
Activity [18]: Active

Compound: C=CC(=O)N1CCC[C@@H](Nc2ncnc3[nH]ccc23)C1
microsomal CLint [9]: 8 µL/min/mg
IC50 [1]: > 10000 nM
IC50 [2]: > 10000 nM
IC50 [3]: > 10000 nM
half-life at 1 µM [12]: 5.53 h
half-life at 1 µM [13]: 1.63 h
Papp [14]: 8 ×10⁻⁶ cm/s
microsomal CLint [16]: < 15 µL/min/mg
IC50 [5]: 107 nM
IC50 [6]: 56 nM
IC50 [7]: 1400 nM
IC50 [8]: 580 nM

Continued, in another order:

microsomal CLint [9]: 12.2 µL/min/mg
clearance [11]: 81 mL/min/kg
IC50 [1]: > 10000 nM
IC50 [2]: > 10000 nM
IC50 [3]: > 10000 nM
half-life at 1 µM [12]: 3.2 h
half-life at 1 µM [13]: 2.73 h
Papp [14]: 20 ×10⁻⁶ cm/s
clearance [15]: 109 mL/min/kg
microsomal CLint [16]: 70 µL/min/mg
IC50 [7]: 984 nM
Compound: C=CC(=O)N1CC[C@H]2CCN(c3ncnc4[nH]ccc34)[C@H]2C1
Activity [10]: Dose-dependent effect

IC50 [1]: 988 nM
IC50 [2]: > 10000 nM
IC50 [3]: 2030 nM
IC50 [6]: 1930 nM
IC50 [7]: 274 nM
Compound: C=CC(=O)N1CC[C@@H](C)[C@@H](N(C)c2ncnc3[nH]ccc23)C1

microsomal CLint [9]: < 8 µL/min/mg
clearance [11]: 10 mL/min/kg
IC50 [1]: > 10000 nM
IC50 [2]: > 10000 nM
IC50 [3]: > 10000 nM
IC50 [4]: 372 nM
Papp [14]: 16 ×10⁻⁶ cm/s
clearance [15]: 76 mL/min/kg
microsomal CLint [16]: 25 µL/min/mg
IC50 [6]: > 10000 nM
IC50 [7]: 863 nM
Compound: CC(=O)N1CC[C@H]2CCN(c3ncnc4[nH]ccc34)[C@H]2C1

IC50 [1]: > 10000 nM
IC50 [2]: > 10000 nM
IC50 [3]: > 10000 nM
IC50 [4]: 1610 nM
IC50 [6]: > 10000 nM
IC50 [7]: 2290 nM
Compound: C/C=C/C(=O)N1CCC[C@@H](Nc2ncnc3[nH]ccc23)C1

IC50 [1]: 7820 nM
IC50 [2]: > 10000 nM
IC50 [3]: > 10000 nM
IC50 [4]: 18 nM
IC50 [6]: 3840 nM
IC50 [7]: 1150 nM
Compound: C=CC(=O)N1CCC[C@@H](N(C)c2ncnc3[nH]ccc23)C1

half-life at 1 µM [17]: > 5 h
Compound: C=CC(=O)N1CC[C@H](C)[C@@H](Nc2ncnc3[nH]ccc23)C1
